In patent publication US20160220569A1, “CDK4/6 Inhibitor Dosage Formulations For The Protection Of Hematopoietic Stem And Progenitor Cells During Chemotherapy” (G1 Therapeutics, Inc., priority 2015, published 2016):
“And” between values parts separate entries of the source, which are not always exact repeats. Equal values may be shown once. Read-outs that look alike come from different tables or passages of the source.

Assay: Single escalating dose IV infusion pharmacokinetics in healthy volunteers (noncompartmental)
Format: in vivo, human
Conditions: for HL_Lambda_z / highest (peak) concentration: individual subjects; for HL_Lambda_z: WinNonlin noncompartmental analysis, in h
Method: Forty-five subjects have enrolled in the study.
Analysis of plasma concentration versus time data for calculation of standard pharmacokinetic (PK) parameters following intravenous infusion administration was conducted using Phoenix WinNonlin version 6.3 using a nominal infusion duration and scheduled blood sampling times. Random subject numbers were assigned by the bioanalytical laboratory to retain the blind.
(§1) Analysis of plasma concentration versus time data for calculation of standard pharmacokinetic (PK) parameters following intravenous infusion administration was conducted using Phoenix WinNonlin version 6.3 using a nominal infusion duration and scheduled blood sampling times.
as §1

[1] = Cohort 2, 12 mg/m^2 IV, r6-8=Subjects 1-3,r10=Mean,r12=Min,r13=Median,r14=Max,r16=Geometric Mean, geometric mean
[2] = Cohort 2, 12 mg/m^2 IV, r6-8=Subjects 1-3,r10=Mean,r12=Min,r13=Median,r14=Max,r16=Geometric Mean, mean
[3] = Cohort 2, 12 mg/m^2 IV, r6-8=Subjects 1-3,r10=Mean,r12=Min,r13=Median,r14=Max,r16=Geometric Mean, median
[4] = Cohort 3, 24 mg/m^2 IV, r6-8=Subjects 1-3,r10=Mean,r12=Min,r13=Median,r14=Max,r16=Geometric Mean, geometric mean
[5] = Cohort 3, 24 mg/m^2 IV, r6-8=Subjects 1-3,r10=Mean,r12=Min,r13=Median,r14=Max,r16=Geometric Mean, maximum
[6] = Cohort 3, 24 mg/m^2 IV, r6-8=Subjects 1-3,r10=Mean,r12=Min,r13=Median,r14=Max,r16=Geometric Mean, mean
[7] = Cohort 3, 24 mg/m^2 IV, r6-8=Subjects 1-3,r10=Mean,r12=Min,r13=Median,r14=Max,r16=Geometric Mean, median
[8] = Cohort 3, 24 mg/m^2 IV, r6-8=Subjects 1-3,r10=Mean,r12=Min,r13=Median,r14=Max,r16=Geometric Mean, minimum
[9] = Cohort 4, 48 mg/m^2 IV, r6-8=Subjects 1-3,r10=Mean,r12=Min,r13=Median,r14=Max,r16=Geometric Mean, geometric mean
[10] = Cohort 4, 48 mg/m^2 IV, r6-8=Subjects 1-3,r10=Mean,r12=Min,r13=Median,r14=Max,r16=Geometric Mean, maximum
[11] = Cohort 4, 48 mg/m^2 IV, r6-8=Subjects 1-3,r10=Mean,r12=Min,r13=Median,r14=Max,r16=Geometric Mean, mean
[12] = Cohort 4, 48 mg/m^2 IV, r6-8=Subjects 1-3,r10=Mean,r12=Min,r13=Median,r14=Max,r16=Geometric Mean, median
[13] = Cohort 4, 48 mg/m^2 IV, r6-8=Subjects 1-3,r10=Mean,r12=Min,r13=Median,r14=Max,r16=Geometric Mean, minimum
[14] = Cohort 5, 96 mg/m^2, 30-minute IV infusion, noncompartmental, subjects 1-6, Mean, Min, Median, Max, Geometric Mean, minimum

Structure (SMILES): CN1CCN(c2ccc(Nc3ncc4cc5n(c4n3)C3(CCCCC3)CNC5=O)nc2)CC1 [Compound 1, 2′-((5-(4-methylpiperazin-1-yl)pyridin-2-yl)amino)-7′,8′-dihydro-6′H-spiro[cyclohexane-1,9′-pyrazino[1′,2′:1,5]pyrrolo[2,3-d]pyrimidin]-6′-one]
- HL_Lambda_z (Cohort 1, 6 mg/m^2): 6.358 and 3.5207 and 4.7366
- highest (peak) concentration (Cohort 1, 6 mg/m^2 IV): 42.7 ng/mL and 42.9 ng/mL and 60.5 ng/mL
- Clearance (CL) (Cohort 1, 6 mg/m^2 IV, mean): 91.4 L/h/m^2
- volume of distribution at steady state (Vss) averaging (Cohort 1, 6 mg/m^2 IV, mean): 358 L/m^2
- HL_Lambda_z (Cohort 2, 12 mg/m^2): 7.5562 and 8.8853
- highest (peak) concentration (Cohort 2, 12 mg/m^2 IV): 87.4 ng/mL and 136 ng/mL
- Clearance (CL) (Cohort 2, 12 mg/m^2 IV, mean): 83.5 L/h/m^2
- volume of distribution at steady state (Vss) averaging (Cohort 2, 12 mg/m^2 IV, mean): 461 L/m^2
- AUCinf [1]: 0.146 µg·h/mL
- CL [1]: 82.4 L/h/m^2
- Cmax [1]: 0.119 µg/mL
- MRTinf [1]: 5.51 h
- Tmax [1]: 0.397 h
- Vss [1]: 454 L/m^2
- λz [1]: 0.0845 h⁻¹
- CL [2]: 83.5 L/h/m^2
- Vss [2]: 461 L/m^2
- λz [2]: 0.0847 h⁻¹
- AUCinf [3]: 0.136 µg·h/mL
- CL [3]: 88.4 L/h/m^2
- Cmax [3]: 0.136 µg/mL
- MRTinf [3]: 5.98 h
- Vss [3]: 405 L/m^2
- λz [3]: 0.0844 h⁻¹
- HL_Lambda_z (Cohort 3, 24 mg/m^2): 13.1458 and 8.6328 and 7.8478
- Clearance (CL) (Cohort 3, 24 mg/m^2 IV, mean): 90.7 L/h/m^2
- volume of distribution at steady state (Vss) averaging (Cohort 3, 24 mg/m^2 IV, mean): 562 L/m^2
- AUClast [4]: 0.253 µg·h/mL
- Vss [4]: 550 L/m^2
- λz [4]: 0.0720 h⁻¹
- AUClast [5]: 0.337 µg·h/mL
- Vss [5]: 674 L/m^2
- λz [5]: 0.0883 h⁻¹
- Vss [6]: 562 L/m^2
- λz [6]: 0.0738 h⁻¹
- AUClast [7]: 0.259 µg·h/mL
- Vss [7]: 599 L/m^2
- λz [7]: 0.0803 h⁻¹
- AUClast [8]: 0.186 µg·h/mL
- Vss [8]: 412 L/m^2
- λz [8]: 0.0527 h⁻¹
- HL_Lambda_z (Cohort 4, 48 mg/m^2): 10.9028 and 7.2383 and 8.5525
- Clearance (CL) (Cohort 4, 48 mg/m^2 IV, mean): 96.5 L/h/m^2
- volume of distribution at steady state (Vss) averaging (Cohort 4, 48 mg/m^2 IV, mean): 771 L/m^2
- Tmax (Cohort 4, 48 mg/m^2 IV, r6-8=Subjects 1-3,r10=Mean,r12=Min,r13=Median,r14=Max,r16=Geometric Mean): 0.25 h
- AUCinf [9]: 0.498 µg·h/mL
- AUClast [9]: 0.452 µg·h/mL
- CL [9]: 96.4 L/h/m^2
- MRTinf [9]: 7.83 h
- Tmax [9]: 0.397 h
- Vss [9]: 754 L/m^2
- λz [9]: 0.0790 h⁻¹
- AUCinf [10]: 0.524 µg·h/mL
- AUClast [10]: 0.48 µg·h/mL
- CL [10]: 105 L/h/m^2
- Cmax [10]: 0.228 µg/mL
- MRTinf [10]: 10.7 h
- Vss [10]: 995 L/m^2
- λz [10]: 0.0958 h⁻¹
- CL [11]: 96.5 L/h/m^2
- Vss [11]: 771 L/m^2
- λz [11]: 0.0801 h⁻¹
- AUCinf [12]: 0.514 µg·h/mL
- AUClast [12]: 0.441 µg·h/mL
- CL [12]: 93.3 L/h/m^2
- Cmax [12]: 0.227 µg/mL
- MRTinf [12]: 7.80 h
- Vss [12]: 715 L/m^2
- λz [12]: 0.0810 h⁻¹
- AUCinf [13]: 0.459 µg·h/mL
- AUClast [13]: 0.437 µg·h/mL
- CL [13]: 91.7 L/h/m^2
- MRTinf [13]: 5.76 h
- Tmax [13]: 0.250 h
- Vss [13]: 603 L/m^2
- λz [13]: 0.0636 h⁻¹
- AUClast (Cohort 5, 96 mg/m^2, 30-minute IV infusion, noncompartmental, subjects 1-6, Mean, Min, Median, Max, Geometric Mean, mean): 1.24 µg·h/mL
- AUClast [14]: 1.04 µg·h/mL
- Tmax [14]: 0.250 h
- maximum mean concentration (Cohort 5, 96 mg/m^2 IV, at the end of infusion (EOI)): 874 ng/mL
- Clearance (CL) (Cohort 5, 96 mg/m^2 IV, mean): 74 L/h/m^2
- volume of distribution at steady state (Vss) averaging (Cohort 5, 96 mg/m^2 IV, mean): 429 L/m^2
- HL_Lambda_z (Cohort 5, received 96 mg/m^2): 8.4971 and 10.9427 and 7.5378 and 10.6557 and 7.1128 and 6.9746
- Clearance (CL) (Cohort 6, […]^2 IV, mean): 62.1 L/h/m^2
- volume of distribution at steady state (Vss) averaging (Cohort 6, […]^2 IV, mean): 547 L/m^2
- AUC(0-inf) (both sexes, human, plasma, iv, 6 mg/m2, Cohort 1, 6 mg/m^2 IV, mean, read-out: AUCinf averaged): 0.0677 µg·h/mL
- Cmax (both sexes, human, plasma, iv, 6 mg/m2, Cohort 1, 6 mg/m^2 IV, mean, read-out: Cmax averaged): 0.0509 µg/mL
- Tmax (both sexes, human, plasma, iv, 6 mg/m2, Cohort 1, 6 mg/m^2 IV, mean, read-out: Tmax): 0.33 h
- half-life (both sexes, human, plasma, iv, 6 mg/m2, Cohort 1, 6 mg/m^2 IV, mean, read-out: average half-life (converted)): 4.87 h
- MRT inf (both sexes, human, plasma, iv, 6 mg/m2, Cohort 1, 6 mg/m^2 IV, r6-8=Subjects 1-3,r10=Mean,r12=Min,r13=Median,r14=Max,r16=Geometric Mean): 4.18 h
- AUC(0-inf) (both sexes, human, plasma, iv, 6 mg/m2, Cohort 1, 6 mg/m^2 IV, r6-8=Subjects 1-3,r10=Mean,r12=Min,r13=Median,r14=Max,r16=Geometric Mean, read-out: AUCinf): 0.0677 µg·h/mL
- Cmax (both sexes, human, plasma, iv, 6 mg/m2, Cohort 1, 6 mg/m^2 IV, r6-8=Subjects 1-3,r10=Mean,r12=Min,r13=Median,r14=Max,r16=Geometric Mean, read-out: Cmax): 0.0509 µg/mL
- Tmax (both sexes, human, plasma, iv, 6 mg/m2, Cohort 1, 6 mg/m^2 IV, r6-8=Subjects 1-3,r10=Mean,r12=Min,r13=Median,r14=Max,r16=Geometric Mean, read-out: Tmax): 0.333 h
- half-life (both sexes, human, plasma, iv, 6 mg/m2, Cohort 1, 6 mg/m^2 IV, r6-8=Subjects 1-3,r10=Mean,r12=Min,r13=Median,r14=Max,r16=Geometric Mean, read-out: t½ (converted)): 4.87 h
